Source: PubChem BioAssay (NCI)
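Assay format: 96-well plates, 48-hour exposure. The concentration for 50% growth inhibition is given as GI50. TGI: concentration producing complete growth inhibition.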

How the values were obtained:
Test in all cases: DTP human tumour cell line panel, 48 h
OVCAR-3 ovarian = system: OVCAR-3 ovarian
CCRF-CEM leukemia = system: CCRF-CEM leukemia
U251 CNS = system: U251 CNS
OVCAR-4 ovarian = system: OVCAR-4 ovarian
KM12 colon = system: KM12 colon
SK-MEL-2 melanoma = system: SK-MEL-2 melanoma
COLO 205 colon = system: COLO 205 colon
SK-OV-3 ovarian = system: SK-OV-3 ovarian
SN12C renal = system: SN12C renal
SK-MEL-28 melanoma = system: SK-MEL-28 melanoma
A498 renal = system: A498 renal
HS 578T breast = system: HS 578T breast
HCC-2998 colon = system: HCC-2998 colon
SK-MEL-5 melanoma = system: SK-MEL-5 melanoma
SF-295 CNS = system: SF-295 CNS
RPMI-8226 leukemia = system: RPMI-8226 leukemia
MALME-3M melanoma = system: MALME-3M melanoma
M14 melanoma = system: M14 melanoma
SF-539 CNS = system: SF-539 CNS
OVCAR-8 ovarian = system: OVCAR-8 ovarian
T-47D breast = system: T-47D breast
786-0 renal = system: 786-0 renal
SW-620 colon = system: SW-620 colon
UACC-62 melanoma = system: UACC-62 melanoma
RXF 393 renal = system: RXF 393 renal
A549 NSCLC = system: A549 NSCLC
HOP-92 NSCLC = system: HOP-92 NSCLC
NCI-H23 lung = system: NCI-H23 lung
SNB-75 CNS = system: SNB-75 CNS
HCT-15 colon = system: HCT-15 colon
ACHN renal = system: ACHN renal
NCI-H460 lung = system: NCI-H460 lung
SNB-19 CNS = system: SNB-19 CNS
TK-10 renal = system: TK-10 renal
HCT-116 colon = system: HCT-116 colon
MDA-MB-435 = system: MDA-MB-435
NCI/ADR-RES ovarian = system: NCI/ADR-RES ovarian
UO-31 renal = system: UO-31 renal
DU-145 prostate = system: DU-145 prostate
HOP-62 NSCLC = system: HOP-62 NSCLC
IGROV1 ovarian = system: IGROV1 ovarian
NCI-H226 lung = system: NCI-H226 lung
OVCAR-5 ovarian = system: OVCAR-5 ovarian
UACC-257 melanoma = system: UACC-257 melanoma
MOLT-4 leukemia = system: MOLT-4 leukemia
MCF7 breast = system: MCF7 breast
HT29 colon = system: HT29 colon
SF-268 CNS = system: SF-268 CNS
PC-3 prostate = system: PC-3 prostate
CAKI-1 renal = system: CAKI-1 renal
BT-549 breast = system: BT-549 breast
K-562 leukemia = system: K-562 leukemia
MDA-MB-231 breast = system: MDA-MB-231 breast
SR leukemia = system: SR leukemia
HL-60(TB) leukemia = system: HL-60(TB) leukemia

## CN(C)c1ccc2nc3ccc(=N)cc-3sc2c1
OVCAR-3 ovarian
  GI50: 2.75 µM
  TGI: 12 µM
CCRF-CEM leukemia
  GI50: 2.15 µM
  TGI: > 100 µM
U251 CNS
  GI50: 2.71 µM
  TGI: 10.5 µM
OVCAR-4 ovarian
  GI50: 1.04 µM
  TGI: 2.47 µM
KM12 colon
  GI50: 3.67 µM
  TGI: 21.7 µM
SK-MEL-2 melanoma
  GI50: 9.24 µM
  TGI: 26.8 µM
COLO 205 colon
  GI50: 2.73 µM
  TGI: 10.3 µM
SK-OV-3 ovarian
  GI50: 10.6 µM
  TGI: 38.7 µM
SN12C renal
  GI50: 2.37 µM
  TGI: 8.06 µM
SK-MEL-28 melanoma
  GI50: 11.9 µM
  TGI: 27.7 µM
A498 renal
  GI50: 2.02 µM
  TGI: 39.5 µM
HS 578T breast
  GI50: 11.4 µM
  TGI: 39.5 µM
HCC-2998 colon
  GI50: 8.39 µM
  TGI: > 100 µM
SK-MEL-5 melanoma
  GI50: 1.51 µM
  TGI: 5.78 µM
SF-295 CNS
  GI50: 5.98 µM
  TGI: 21.2 µM
RPMI-8226 leukemia
  GI50: 1.21 µM
  TGI: 25.7 µM
MALME-3M melanoma
  GI50: 2.26 µM
  TGI: 7.67 µM
M14 melanoma
  GI50: 3.9 µM
  TGI: 14.3 µM
SF-539 CNS
  GI50: 2.2 µM
  TGI: 5.12 µM
OVCAR-8 ovarian
  GI50: 2.14 µM
  TGI: 12 µM
T-47D breast
  GI50: 3.63 µM
  TGI: 21.3 µM
786-0 renal
  GI50: 11.8 µM
  TGI: 28.7 µM
SW-620 colon
  GI50: 2.83 µM
  TGI: 12.9 µM
UACC-62 melanoma
  GI50: 2.66 µM
  TGI: 8.19 µM
RXF 393 renal
  GI50: 10.4 µM
  TGI: 26.8 µM
A549 NSCLC
  GI50: 2.37 µM
  TGI: 13.9 µM
HOP-92 NSCLC
  GI50: 3.79 µM
  TGI: 41.6 µM
NCI-H23 lung
  GI50: 3.3 µM
  TGI: 49.5 µM
SNB-75 CNS
  GI50: 3.29 µM
  TGI: 15.4 µM
HCT-15 colon
  GI50: 3.07 µM
  TGI: 24.4 µM
ACHN renal
  GI50: 5.43 µM
  TGI: 39.8 µM
NCI-H460 lung
  GI50: 7.06 µM
  TGI: > 100 µM
SNB-19 CNS
  GI50: 2.86 µM
  TGI: 21.1 µM
TK-10 renal
  GI50: 7.76 µM
  TGI: 31.4 µM
HCT-116 colon
  GI50: 2.38 µM
  TGI: 12.5 µM
MDA-MB-435
  GI50: 1.75 µM
  TGI: 3.63 µM
NCI/ADR-RES ovarian
  GI50: 3.11 µM
  TGI: 48.3 µM
UO-31 renal
  GI50: 11.6 µM
  TGI: 31.2 µM
DU-145 prostate
  GI50: 14.3 µM
  TGI: 28.3 µM
HOP-62 NSCLC
  GI50: 6.87 µM
  TGI: 51.5 µM
IGROV1 ovarian
  GI50: 8.59 µM
  TGI: 35.9 µM
NCI-H226 lung
  GI50: 12.1 µM
  TGI: 28.8 µM
OVCAR-5 ovarian
  GI50: 11 µM
  TGI: 29.4 µM
UACC-257 melanoma
  GI50: 2.6 µM
  TGI: 9.71 µM
MOLT-4 leukemia
  GI50: 3.47 µM
  TGI: > 100 µM
MCF7 breast
  GI50: 1.91 µM
  TGI: 6.29 µM
HT29 colon
  GI50: 21.6 µM
  TGI: 63.5 µM
SF-268 CNS
  GI50: 4.13 µM
  TGI: 20 µM
PC-3 prostate
  GI50: 1.03 µM
  TGI: 14.2 µM
CAKI-1 renal
  GI50: 4.21 µM
  TGI: 19.3 µM
BT-549 breast
  GI50: 7.74 µM
  TGI: 69 µM
K-562 leukemia
  GI50: 2.61 µM
  TGI: > 100 µM
MDA-MB-231 breast
  GI50: 1.88 µM
  TGI: 11.8 µM
SR leukemia
  GI50: 6.86 µM
  TGI: > 100 µM
HL-60(TB) leukemia
  GI50: 7.53 µM
  TGI: 32.9 µM
